Measurements as given in patent US20240065994A1, “COMPOSITIONS AND METHODS FOR PREVENTING OR TREATING DISEASES OR DISORDERS ASSOCIATED WITH PROTEIN MISFOLDING” (priority 2020, published 2024).

How the values were obtained:
[1] = Effect of BSO on body weight; assay type: in vivo, mice; settings: 15 mM BSO in drinking water for eight weeks, weighed weekly
Source text: (§1) Animals: C57BL/6-Ins2^Akita/J (Akita) are an excellent model for Mutant-insulin Diabetes of Youth. Akita mice suffer from diabetes due to misfolded proinsulin, as the gene that codes for proinsulin (Ins2) is mutated. […] One male Akita mice was bred to female mice and the progeny were back-crossed to obtain enough number of heterozygous and wild-type male mice. The genotype of the mice was confirmed by using methods described previously. Briefly, the polymerase chain reaction product of the amplicons from the mutated region of the Ins 2 gene were subjected to restriction enzyme digestion and the products of the digestion were separated in agarose gels. Based on the number of fragments that resulted from the digestion, the genotypes of mice were confirmed. Only heterozygous male mice were used in the experiments. After two rounds of breeding, 12 heterozygous Akita and 12 wild-type Akita mice. After reaching 15-weeks of age, mice in each genotype were randomized into two groups of 6 animals each (n=6/group). All mice were given either 0 mM or 15 mM of D,L-Buthionine-(S,R)-sulfoximine (BSO, Toronto Research Chemicals Inc., ON, CA) administered in drinking water. […]
Experiment 1. […] Body weight was monitored every week.
(§2) Body weight (see FIG. 1) and food consumption (see FIG. 2) was monitored weekly. […]

[2] = Effect of BSO on food intake; assay type: in vivo, mice; settings: 15 mM BSO in drinking water for eight weeks, measured weekly
Source text: as §1
Experiment 2. […] Food intake was measured every week.
as §2

[3] = tested on: glutathione; assay: Effect of BSO on blood glutathione concentration; assay type: in vivo, mice; settings: after eight weeks on 15 mM BSO
Source text: Animals: C57BL/6-Ins2^Akita/J (Akita) are an excellent model for Mutant-insulin Diabetes of Youth. Akita mice suffer from diabetes due to misfolded proinsulin, as the gene that codes for proinsulin (Ins2) is mutated. […] One male Akita mice was bred to female mice and the progeny were back-crossed to obtain enough number of heterozygous and wild-type male mice. The genotype of the mice was confirmed by using methods described previously. Briefly, the polymerase chain reaction product of the amplicons from the mutated region of the Ins 2 gene were subjected to restriction enzyme digestion and the products of the digestion were separated in agarose gels. Based on the number of fragments that resulted from the digestion, the genotypes of mice were confirmed. Only heterozygous male mice were used in the experiments. After two rounds of breeding, 12 heterozygous Akita and 12 wild-type Akita mice. After reaching 15-weeks of age, mice in each genotype were randomized into two groups of 6 animals each (n=6/group). […] Glutathione was determined as described in experimental methods section. […] Glutathione was determined by a colorimetric method based on an enzymatic recycling method using 5,5′-dithiobis-(2-nitrobenzoic acid) as described earlier (Teitze et al). Using a standard curve with known concentrations the glutathione concentrations were determined and expressed as μg/mL blood.

[4] = tested on: Akita mice; assay: Effect of BSO on fasting glucose; assay type: in vivo; settings: 15 mM BSO in drinking water, measured before and 1, 3, 4, 7, 8 weeks after, persisted throughout the study
Source text: Experimentation was done with Akita mice, which harbor a similar mutation in the proinsulin gene as human patients with MIDY, are used as a laboratory model for MIDY. […] The Akita strain is a monogenic model for phenotypes associated with type 1 diabetes. A spontaneous mutation in the insulin 2 gene leads to incorrect folding of the proinsulin protein producing toxicity in pancreatic beta-cells, reduced beta-cell mass and reduced insulin secretion. As a result, Akita mice suffer with glucose levels that are two to four-fold higher than healthy mice. […] Animals: C57BL/6-Ins2^Akita/J (Akita) are an excellent model for Mutant-insulin Diabetes of Youth. Akita mice suffer from diabetes due to misfolded proinsulin, as the gene that codes for proinsulin (Ins2) is mutated. […] One male Akita mice was bred to female mice and the progeny were back-crossed to obtain enough number of heterozygous and wild-type male mice. The genotype of the mice was confirmed by using methods described previously. […] Fasting glucose was determined using AlphaTrak-2 glucometer. […] Fasting (6 hr) blood glucose was determined from tail clips before starting the mice on BSO and 1, 3, 4, 7, and 8 weeks after treating with BSO. […]

[5] = tested on: Wild-type and Akita mice; assay: Glucose tolerance test (GTT); assay type: in vivo; settings: 15 mM BSO, fifth week, 0.85 g/Kg D-glucose i.p., 6 h fast
Source text: (§3) Animals: C57BL/6-Ins2^Akita/J (Akita) are an excellent model for Mutant-insulin Diabetes of Youth. Akita mice suffer from diabetes due to misfolded proinsulin, as the gene that codes for proinsulin (Ins2) is mutated. […] One male Akita mice was bred to female mice and the progeny were back-crossed to obtain enough number of heterozygous and wild-type male mice. The genotype of the mice was confirmed by using methods described previously. Briefly, the polymerase chain reaction product of the amplicons from the mutated region of the Ins 2 gene were subjected to restriction enzyme digestion and the products of the digestion were separated in agarose gels. Based on the number of fragments that resulted from the digestion, the genotypes of mice were confirmed. Only heterozygous male mice were used in the experiments. After two rounds of breeding, 12 heterozygous Akita and 12 wild-type Akita mice. […] Body weight (see FIG. 1) and food consumption (see FIG. 2) was monitored weekly. […] Mice were intraperitoneally injected with 0.85 g/Kg body weight D-glucose and blood glucose was determined at specified intervals. […] Blood glucose was measured from tail clips using AlphaTrak-2 (Parsipanny, NJ,) glucometer and compatible strips. Blood glucose was measured at 0, 5, 15, 30, 60, 90, 120, 150, 180, and 210 min after injection. […]

[6] = tested on: Wild-type and Akita mice; assay: Insulin tolerance test (ITT); assay type: in vivo; settings: 15 mM BSO, third week, 1 U/Kg insulin i.p., 6 h fast
Source text: as §3, with “1 U/Kg” for “0.85 g/Kg”, “of insulin” for “D-glucose”

effect on food intake ([2]; Akita mice): does not affect
effect on food intake ([2]; wild-type mice): does not affect
Structure (SMILES): CCCCS(=N)(=O)CC[C@H](N)C(=O)O (mixture of isomers) [BSO, D,L-Buthionine-(S,R)-sulfoximine]
effect on body weight ([1]; Akita mice): lack of the effect
effect on body weight ([1]; wild-type mice): lack of the effect
effect on blood glutathione concentration ([3]; Akita mice): decreased
effect on blood glutathione concentration ([3]; wild-type mice): decreased
effect on fasting (6 hr) blood glucose [4]: Decrease in glucose levels in Akita was evident within one week
glucose tolerance area under the curve decreased to ([5]; Akita mice, baseline subtracted): less than 50%
effect on glucose tolerance area under the curve ([5]; wild-type mice): did affect
effect on insulin tolerance area under the curve ([6]; Akita mice): No effect
effect on insulin tolerance area under the curve ([6]; wild-type mice): No effect
